Assay results taken from PubChem BioAssay (NCI).
Where “and” joins values, the source holds several entries; their conditions need not be identical. Identical values can stand only once.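 How tested: cells in 96-well plates exposed to compound for 48 hours at five concentrations. GI50: concentration for 50% inhibition of growth. At the TGI there is no net growth.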

What was measured:
Assay in all cases: NCI-60 cell line screen, 48 h
SNB-75 CNS = tested on: SNB-75 CNS
DU-145 prostate = tested on: DU-145 prostate
OVCAR-3 ovarian = tested on: OVCAR-3 ovarian
HCT-116 colon = tested on: HCT-116 colon
SK-MEL-5 melanoma = tested on: SK-MEL-5 melanoma
T-47D breast = tested on: T-47D breast
HL-60(TB) leukemia = tested on: HL-60(TB) leukemia
BT-549 breast = tested on: BT-549 breast
MCF7 breast = tested on: MCF7 breast
NCI/ADR-RES ovarian = tested on: NCI/ADR-RES ovarian

Row | SMILES | TGI (SNB-75 CNS) | TGI (DU-145 prostate) | TGI (OVCAR-3 ovarian) | TGI (HCT-116 colon) | TGI (SK-MEL-5 melanoma) | TGI (T-47D breast) | TGI (HL-60(TB) leukemia) [µM] | TGI (BT-549 breast) | TGI (MCF7 breast) | TGI (NCI/ADR-RES ovarian) [µM] | GI50 (SNB-75 CNS) [µM] | GI50 (DU-145 prostate) [µM] | GI50 (OVCAR-3 ovarian) [µM] | GI50 (HCT-116 colon) [µM] | GI50 (SK-MEL-5 melanoma) [µM] | GI50 (T-47D breast) [µM] | GI50 (BT-549 breast) [µM] | GI50 (MCF7 breast) [µM] | GI50 (NCI/ADR-RES ovarian) [µM]
1 | CC(C)OC(=O)OCSc1ccccc1N=Cc1cccc([N+](=O)[O-])c1 | > 10 µM | > 10 µM | > 10 µM | > 10 µM | > 10 µM | > 10 µM | > 10 | > 10 µM | > 10 µM | > 10 |  |  |  |  |  |  |  |  | 
2 | N#Cc1c(-c2ccccc2)cc(-c2ccc(Cl)cc2)[nH]c1=S | > 100 µM | > 100 µM | > 100 µM | > 100 µM | 39 µM | > 100 µM | > 100 | > 100 µM | 53.1 µM | > 100 |  |  |  |  |  |  |  |  | 
3 | C=C(CN(C)C)C(=O)c1ccccc1[N+](=O)[O-] | 66.3 µM and 44.4 µM | 52.3 µM and 28.2 µM | 37 µM and 40.7 µM | 31.6 µM and 38.3 µM | 33.4 µM and 39.6 µM | 18.6 µM and 28.6 µM | 8.2 | 30.6 µM and 60.4 µM | 31.1 µM and 24.5 µM | 48.9 | 15.8 | 15 | 14.7 | 7.18 | 16.9 | 5.68 | 24.3 | 5.02 | 5.61
4 | Cc1ccc(C2=CC(=O)/C(=C\C(=O)c3ccc(Cl)cc3)O2)cc1 | 74.5 µM | 87.1 µM | 18.4 µM | 27.8 µM | 33.2 µM | 24.3 µM | 4.74 | 5.54 µM | 25.6 µM | 49.6 |  |  |  |  |  |  |  |  | 
5 | O=C(Nc1noc(-c2ccccc2)n1)c1ccccc1CNc1noc(-c2ccccc2)n1 | > 100 µM | > 100 µM | > 100 µM | > 100 µM | > 100 µM | > 100 µM | > 100 | > 100 µM | > 100 µM | > 100 |  |  |  |  |  |  |  |  | 
6 | COCCOCCOC1=CC(=O)c2c(O)ccc(O)c2C1=O | 3.28 µM | 2.82 µM | 2.75 µM | 1.05 µM | 0.329 µM | 3.48 µM | 2.52 | 3.2 µM | 2.88 µM | 4.85 |  |  |  |  |  |  |  |  | 
7 | S=c1cc(-c2ccc3c(c2)OCO3)s[nH]1 | > 100 µM | > 100 µM | > 100 µM | > 100 µM | > 100 µM | > 100 µM | > 100 | > 100 µM | > 100 µM | > 100 |  |  |  |  |  |  |  |  | 
8 | COC1CC(OC2CCC3(C)C(=CCC4C3C(OC(C)=O)C(OC(=O)CC(C)C)C3(C)C(C(C)=O)CCC43O)C2)OC(C)C1OC1CC(OC)C(OC2CC(OC)C(OC3OC(C)C(OC4OC(CO)C(O)C(O)C4O)C(OC)C3O)C(C)O2)C(C)O1 (centres undefined) | > 75 µM | > 75 µM | > 75 µM | > 75 µM | > 75 µM | > 75 µM | > 75 | > 75 µM | > 75 µM | > 75 |  |  |  |  |  |  |  |  | 
9 | CCOC(=O)/C=C(\C(=O)OCC)n1ccc(=O)n(Cc2cn(COCCOC(C)=O)nn2)c1=O | > 69.4 µM | > 100 µM | 48 µM | 33 µM | 47.1 µM | 55.8 µM | 41.3 | 33.2 µM | 35.1 µM | 52.8 |  |  |  |  |  |  |  |  | 
10 | O=c1[nH]c(=O)n(C2CC(O)C(CO)O2)cc1OCc1ccccc1 (centres undefined) | > 100 µM | > 100 µM | > 100 µM | > 100 µM | > 100 µM | > 100 µM | > 100 | > 100 µM | > 100 µM | > 100 |  |  |  |  |  |  |  |  | 
11 | COc1ccc(-c2cc(-c3ccccc3)[nH]c(=S)c2C#N)cc1 | 88.1 µM | > 100 µM | 38.3 µM | > 100 µM | 34.3 µM | 94.3 µM | > 100 | > 100 µM | > 100 µM | > 100 |  |  |  |  |  |  |  |  | 
12 | NC(=O)N/N=C1\CC2C3CC4C2C4C13 (centres undefined) | > 100 µM | > 100 µM | > 100 µM | > 100 µM | > 100 µM | > 100 µM | > 100 | > 100 µM | > 100 µM | > 100 |  |  |  |  |  |  |  |  | 
13 | O=c1[nH]nc(Cc2ccccc2)n1/N=C/c1ccncc1 | > 100 µM | > 100 µM | > 100 µM | > 100 µM | > 100 µM | > 100 µM | > 100 | > 100 µM | > 100 µM | > 100 |  |  |  |  |  |  |  |  | 
14 | COc1cc(/C=C/C=C2\CC/C(=C\C=C\c3ccc(O)c(OC)c3)C2=O)ccc1O | > 100 µM | > 100 µM | > 100 µM | > 100 µM | > 100 µM | > 100 µM | > 63.8 | > 100 µM | > 100 µM | > 100 |  |  |  |  |  |  |  |  | 
15 | COc1ccc(NC(=S)NC(=O)c2ccc3c(c2)Sc2ccccc2O3)c([N+](=O)[O-])c1 | 23.7 µM | > 100 µM | 58.5 µM | > 100 µM | > 100 µM | > 100 µM | 82.1 | 70.5 µM | > 100 µM | > 100 |  |  |  |  |  |  |  |  | 
16 | O=[N+]([O-])c1ccc2c(c1)C1=NN(c3ccccc3)C(c3ccccc3Br)C1CCC2 (centres undefined) | > 50 µM | > 50 µM | > 50 µM | > 50 µM | > 50 µM | 47.3 µM | 24.1 | 35 µM | > 50 µM | 45.6 |  |  |  |  |  |  |  |  | 
